According to patent publication US6716961B2, “Chiral peptide nucleic acids with a N-aminoethyl-d-proline backbone” (ISIS Innovation Limited, priority 2001, dated 2004):

Key:
[1] = tested on: poly(rA); assay: Tm (UV melting) measurement of hybrid with poly(rA); type: binding
Procedure: (§1) FIG. 1 is a melting point curve for compound (3a) and poly (rA), (sigmoid curve with inflection at 53° C.) poly (rU) (rising straight line plot) and poly (dA) (falling straight line plot) Conditions: 10 mM sodium phosphate buffer pH 7.0; 150 mM NaCl; 1.0 μM (3a); ratio of T:A=1:1, 20% hypochromicity.
(§2) Poly(rA) (Mr˜7×10^6) and poly(rU) (Mr<9×10^5) was obtained from Fluka AG. Poly(dA) (Mr˜9.19×10^5) was obtained from Amersham Pharmacia Biotech. Poly(rI) was obtained from Sigma. The oligonucleotide, (dA)10 and fluorescent labelled (dA)10 was obtained in deprotected and hplc-purified form. All nucleic acids and oligonucleotides were used as received without further treatment.
(§3) The concentration of oligonucleotide, nucleic acid and cPNA solutions was determined from the absorbance at 260 nm (OD260). […]
(§4) Tm experiments were performed on a CARY 100 UV Spectrophotometer (Varian Ltd.) equipped with a thermal melt system. The sample for Tm measurement was prepared by mixing calculated amounts of stock oligonucleotide and cPNA solutions together to give final concentration of nucleotides and sodium phosphate buffer (pH 7.0) and the final volumes were adjusted to 3.0 mL by addition of deionized water. […] The OD260 was recorded in steps from 20-95° C. […] The results were normalized by dividing the absorbance at each temperature by the initial absorbance. […]

[2] = tested on: poly(rU); assay: Tm (UV melting) control experiment with poly(rU); type: binding; details: conditions as FIG. 1; dash with footnote b = no melting above 20° C. was observed
Procedure: as §1, §2, §3, §4

[3] = tested on: poly(rI); assay: Tm (UV melting) control experiment with poly(rI); type: binding; details: conditions as FIG. 1; dash with footnote b = no melting above 20° C. was observed
Procedure: as §1, §2, §3, §4

[4] = tested on: poly(rA); assay: Circular dichroism spectroscopy of mixture with poly(rA); type: binding; details: 10 mM sodium phosphate buffer pH 7.0; 200-300 nm
Procedure: (§5) FIG. 2A is a CD spectra of mixture of poly(rA) and (3a) at different equivalents of T; inset: plot of ε260 versus equivalents of T; FIG. 2B is a CD spectra of mixture of poly(dA) and (3a) at different equivalents of T. Conditions 10 mM sodium phosphate buffer pH 7.0. The concentration of poly (rA) and poly (dA) was 10 μM based on AMP.
(§6) All CD experiments were performed on a JASCO Model J-710/720 spectropolarimeter (Oxford Centre of Molecular Sciences, Oxford). The samples were prepared by mixing calculated amounts of stock oligonucleotide and cPNA solutions together in a 10 mm quartz cell and the final volumes were adjusted to 2.00 mL by addition of deionized water containing an appropriate amount of sodium phosphate buffer pH 7.0 to give the final AMP concentration of 5 mM and phosphate buffer of 10 mM. The spectra were measured at 20° C. from 300 to 200 nm and averaged 4 times then subtracted from a spectrum of pure water under the same conditions.

[5] = tested on: poly(dA); assay: Circular dichroism spectroscopy of mixture with poly(dA); type: binding; details: 10 mM sodium phosphate buffer pH 7.0; same conditions as poly(rA)
Procedure: as §5, §6

[6] = tested on: fluorescent labelled (dA)10; assay: Gel electrophoresis with fluorescent labelled (dA)10; type: binding; details: F(dA)10:cPNA 1:1 to 1:10; 20% polyacrylamide gel, 90 mM TBE
Description: The gel electrophoresis apparatus used was a SE6000 Vertical Slab Gel Electrophoresis Unit (Hoefer Scientific Instruments). The gel dimensions were 10×9.5×0.075 cm. The DC power sources was an Electrophoresis power supply model EPS-301 (Amersham Pharmacia Biotech). Acrylamide and N,N-methylene bisacrylamide were obtained as a concentrated aqueous stock solution from Fluka AG. Ammonium persulfate (electrophoresis grade) was obtained from Sigma Chemical Co. Tetramethylethylenediamine (TEMED) (electrophoresis grade) and hemicals necessary for preparing buffers were of the highest purity available from BDH. The stock 0.90 M Tris-Borate-EDTA (TBE) buffer pH 8.3 and the loading buffer (30% glycerol, 0.025% bromophenol blue and 0.025% xylene cyanol FF in 90 mM TBE as well as the 20% polyacrylamide gel in 90 mM TBE was prepared according to the literature (see Essential Molecular Biology, A Practical Approach, Vol 1, Oxford, 1991, pp 89-126).
The sample was prepared by mixing calculated amounts of the fluorescent labelled (dA)10 and PNA concentrated stock solutions in an Eppendorf tube to give the final total amounts of AMP ˜1 nmol and the molar ratio of F(dA)10:cPNA=1:1, 1:2, 1:3, 1:5 and 1:10. […]

[7] = Solubility in aqueous solvents; type: physicochemical
[8] = tested on: poly(dA); assay: Tm (UV melting) measurement of hybrid with poly(dA); type: binding; details: conditions as FIG. 1 (10 mM sodium phosphate pH 7.0; 150 mM NaCl; T:A=1:1); dash with footnote b = no melting above 20° C. was observed
Procedure: as §1, §2, §3, §4

Substance	Tm of hybrid with poly(rA) ([1]; 10 mM sodium phosphate buffer pH 7.0, 150 mM NaCl, 1.0 μM (3a), T:A=1:1)	binding to poly(rA) at high salt concentration ([1]; 1.0 M NaCl)	Tm of hybrid with poly(rU) [2]	Tm of hybrid with poly(rI) [3]	change in CD signal on addition to poly(rA) [4]	change in CD signal on addition to poly(dA) [5]	binding to (dA)10 in gel electrophoresis [6]	achievable concentration in aqueous solvents [7]	solubility in aqueous solvents [7]	Tm of hybrid with poly(dA) [8]
H-[(ψ-CH2)Gly-D-Pro(T)]10-LysNH2 [(3a)]	53 °C	no binding	no observable melting curve	no observable melting curve	strong induced CD signal with a minima at 275 nm	no significant change	lack of binding	exceeding 5 mg/mL	freely soluble in aqueous solvents	–
H-[Gly-o-Pro(cis-τ)]10-LysNH, [(2a)]	–	–	–	–	–	–	–	–	–	70 °C
H-[Acg(T)]10-LysNH3 [(1a)]	–	–	–	–	–	–	–	–	–	73 °C
